Assay: xn = mol fraction of the nth substance listed
Settings: 100 kPa, Liquid; for viscosity: Capillary tube (Ostwald / Ubbelohde) method; for mass density: Vibrating tube method

CC1CCC(=O)O1 (stereo not drawn) [γ-valerolactone] + CCCC[n+]1ccn(C)c1.O=S(=O)([N-]S(=O)(=O)C(F)(F)F)C(F)(F)F
Settings | mass density [kg/m3] | viscosity [mPa·s]
293.15 K, x2 = 0 | 1053.99 | 1.99
293.15 K, x2 = 0.0505 | 1108.43 | 2.51
293.15 K, x2 = 0.1001 | 1153.24 | 3.21
293.15 K, x2 = 0.1492 | 1191.45 | 4.28
293.15 K, x2 = 0.1998 | 1223.25 | 5.6
293.15 K, x2 = 0.3008 | 1274.04 | 8.84
293.15 K, x2 = 0.4031 | 1317.29 | 13.88
293.15 K, x2 = 0.5048 | 1347.03 | 19.18
293.15 K, x2 = 0.6031 | 1373.16 | 25.88
293.15 K, x2 = 0.6973 | 1393.96 | 33.12
293.15 K, x2 = 0.7994 | 1413.3 | 42.31
293.15 K, x2 = 0.8711 | 1426.6 | 50.45
298.15 K, x2 = 0 | 1049.28 | 1.82
298.15 K, x2 = 0.0505 | 1103.66 | 2.21
298.15 K, x2 = 0.1001 | 1148.42 | 2.76
298.15 K, x2 = 0.1492 | 1186.58 | 3.57
298.15 K, x2 = 0.1998 | 1218.36 | 4.71
298.15 K, x2 = 0.3008 | 1269.12 | 7.2
298.15 K, x2 = 0.4031 | 1312.35 | 11.11
298.15 K, x2 = 0.5048 | 1342.1 | 15.34
298.15 K, x2 = 0.6031 | 1368.22 | 20.69
298.15 K, x2 = 0.6973 | 1389.01 | 26.55
298.15 K, x2 = 0.7994 | 1408.36 | 34.16
298.15 K, x2 = 0.8711 | 1421.67 | 40.79
303.15 K, x2 = 0 | 1044.58 | 1.67
303.15 K, x2 = 0.0505 | 1098.86 | 1.98
303.15 K, x2 = 0.1001 | 1143.54 | 2.45
303.15 K, x2 = 0.1492 | 1181.67 | 3.13
303.15 K, x2 = 0.1998 | 1213.42 | 4.03
303.15 K, x2 = 0.3008 | 1264.12 | 6.01
303.15 K, x2 = 0.4031 | 1307.33 | 9.11
303.15 K, x2 = 0.5048 | 1337.07 | 12.52
303.15 K, x2 = 0.6031 | 1363.16 | 17.18
303.15 K, x2 = 0.6973 | 1383.94 | 21.62
303.15 K, x2 = 0.7994 | 1403.29 | 27.85
303.15 K, x2 = 0.8711 | 1416.59 | 33.15
308.15 K, x2 = 0 | 1039.87 | 1.53
308.15 K, x2 = 0.0505 | 1094.09 | 1.81
308.15 K, x2 = 0.1001 | 1138.71 | 2.22
308.15 K, x2 = 0.1492 | 1176.8 | 2.79
308.15 K, x2 = 0.1998 | 1208.52 | 3.53
308.15 K, x2 = 0.3008 | 1259.2 | 5.16
308.15 K, x2 = 0.4031 | 1302.39 | 7.78
308.15 K, x2 = 0.5048 | 1332.11 | 10.6
308.15 K, x2 = 0.6031 | 1358.2 | 14.12
308.15 K, x2 = 0.6973 | 1378.98 | 17.97
308.15 K, x2 = 0.7994 | 1398.34 | 22.82
308.15 K, x2 = 0.8711 | 1411.63 | 27.09
313.15 K, x2 = 0 | 1035.16 | 1.42
313.15 K, x2 = 0.0505 | 1089.31 | 1.65
313.15 K, x2 = 0.1001 | 1133.87 | 2
313.15 K, x2 = 0.1492 | 1171.93 | 2.45
313.15 K, x2 = 0.1998 | 1203.61 | 3.17
313.15 K, x2 = 0.3008 | 1254.26 | 4.5
313.15 K, x2 = 0.4031 | 1297.42 | 6.65
313.15 K, x2 = 0.5048 | 1327.12 | 9.02
313.15 K, x2 = 0.6031 | 1353.2 | 12.05
313.15 K, x2 = 0.6973 | 1373.98 | 15.14
313.15 K, x2 = 0.7994 | 1393.33 | 19.14
313.15 K, x2 = 0.8711 | 1406.62 | 22.7
318.15 K, x2 = 0 | 1030.45 | 1.32
318.15 K, x2 = 0.0505 | 1084.53 | 1.52
318.15 K, x2 = 0.1001 | 1129.05 | 1.79
318.15 K, x2 = 0.1492 | 1167.06 | 2.22
318.15 K, x2 = 0.1998 | 1198.73 | 2.8
318.15 K, x2 = 0.3008 | 1249.35 | 4.03
318.15 K, x2 = 0.4031 | 1292.49 | 5.76
318.15 K, x2 = 0.5048 | 1322.17 | 7.84
318.15 K, x2 = 0.6031 | 1348.24 | 10.41
318.15 K, x2 = 0.6973 | 1369.02 | 12.96
318.15 K, x2 = 0.7994 | 1388.35 | 16.42
318.15 K, x2 = 0.8711 | 1401.62 | 19.25
323.15 K, x2 = 0 | 1025.74 | 1.23
323.15 K, x2 = 0.0505 | 1079.76 | 1.41
323.15 K, x2 = 0.1001 | 1124.22 | 1.66
323.15 K, x2 = 0.1492 | 1162.18 | 2.04
323.15 K, x2 = 0.1998 | 1193.83 | 2.49
323.15 K, x2 = 0.3008 | 1244.4 | 3.59
323.15 K, x2 = 0.4031 | 1287.51 | 5.19
323.15 K, x2 = 0.5048 | 1317.18 | 6.98
323.15 K, x2 = 0.6031 | 1343.25 | 9.22
323.15 K, x2 = 0.6973 | 1364.02 | 11.45
323.15 K, x2 = 0.7994 | 1383.35 | 14.32
323.15 K, x2 = 0.8711 | 1396.6 | 16.68

— the NIST ThermoML archive (doi:10.1016/j.jct.2016.12.032)
